Experimental data reported in ChEMBL document CHEMBL6177949, “Exploiting Solvent Exposed Salt-Bridge Interactions for the Discovery of Potent Inhibitors of SOS1 Using Free-Energy Perturbation Simulations” (ACS Med Chem Lett, 2025).
Values after ≈ are worked out from the molar mass of the structure shown.

Legend:
[1] = tested on: NCI-H358; experiment: cells; details: Homo sapiens
Description: Antiproliferative activity against human NCI-H358 cells assessed as reduction in cell viability incubated for 10 days with media refreshed for every 5 days by celltiter-glo assay

[2] = molecular target: Son of sevenless homolog 1 (Homo sapiens, UniProt Q07889, G12C); experiment: Binding affinity to recombinant human His10-tagged SOS1 (564 to 1049 residues) assessed as inhibition of GST-tagged human KRAS G12C mutant (1 to 169 residues) interaction with SOS1 preincubated for 15 mins followed by KRAS addition and measured after 2 hrs by FRET assay
Sequence of Son of sevenless homolog 1 (Q07889 whole entry, looked up, stated change not applied, the tested form may be a part): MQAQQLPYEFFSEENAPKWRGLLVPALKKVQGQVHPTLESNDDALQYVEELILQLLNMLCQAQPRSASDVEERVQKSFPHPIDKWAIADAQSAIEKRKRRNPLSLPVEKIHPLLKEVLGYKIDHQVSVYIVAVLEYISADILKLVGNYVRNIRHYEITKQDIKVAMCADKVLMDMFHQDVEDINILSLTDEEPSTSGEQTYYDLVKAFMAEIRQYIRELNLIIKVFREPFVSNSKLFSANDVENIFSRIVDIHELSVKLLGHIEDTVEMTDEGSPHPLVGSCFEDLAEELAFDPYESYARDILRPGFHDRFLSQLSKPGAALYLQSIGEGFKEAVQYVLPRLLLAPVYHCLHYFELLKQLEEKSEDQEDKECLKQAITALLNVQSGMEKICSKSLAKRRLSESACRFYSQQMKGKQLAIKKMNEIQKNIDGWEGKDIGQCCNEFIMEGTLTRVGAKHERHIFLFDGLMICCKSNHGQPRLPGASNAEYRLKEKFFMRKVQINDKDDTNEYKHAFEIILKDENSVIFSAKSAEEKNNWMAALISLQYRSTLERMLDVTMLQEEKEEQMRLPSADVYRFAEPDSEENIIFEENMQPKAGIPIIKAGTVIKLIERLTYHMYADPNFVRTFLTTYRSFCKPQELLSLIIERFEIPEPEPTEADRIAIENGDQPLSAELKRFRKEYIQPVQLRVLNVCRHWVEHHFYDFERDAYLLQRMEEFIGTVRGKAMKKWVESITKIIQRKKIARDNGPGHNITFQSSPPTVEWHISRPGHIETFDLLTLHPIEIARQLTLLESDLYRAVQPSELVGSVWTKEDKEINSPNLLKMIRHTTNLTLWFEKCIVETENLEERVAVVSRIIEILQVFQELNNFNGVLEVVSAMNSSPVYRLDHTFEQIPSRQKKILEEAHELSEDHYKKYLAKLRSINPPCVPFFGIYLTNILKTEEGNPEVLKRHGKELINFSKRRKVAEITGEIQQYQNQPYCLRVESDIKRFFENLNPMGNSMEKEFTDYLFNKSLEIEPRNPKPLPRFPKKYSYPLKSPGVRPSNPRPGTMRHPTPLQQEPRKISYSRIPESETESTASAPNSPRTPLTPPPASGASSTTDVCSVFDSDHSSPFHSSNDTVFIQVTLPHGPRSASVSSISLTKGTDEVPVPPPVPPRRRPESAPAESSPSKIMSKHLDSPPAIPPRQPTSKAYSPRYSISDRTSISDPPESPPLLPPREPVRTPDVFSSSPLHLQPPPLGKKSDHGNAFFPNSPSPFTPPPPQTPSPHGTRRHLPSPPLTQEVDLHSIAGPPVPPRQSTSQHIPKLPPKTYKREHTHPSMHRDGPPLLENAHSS

[3] = Half life in BALB/c mouse at 1 mg/kg, iv administered as bolus dose by LC-MS/MS analysis; type: ADME, organism-based; details: in vivo
[4] = molecular target: Voltage-gated inwardly rectifying potassium channel KCNH2 (Homo sapiens, UniProt Q12809); experiment: Inhibition of human ERG stably transfected in HEK293 cells by manual patch-clamp assay; type: toxicity, cell-based
Sequence of Voltage-gated inwardly rectifying potassium channel KCNH2 (Q12809 whole entry): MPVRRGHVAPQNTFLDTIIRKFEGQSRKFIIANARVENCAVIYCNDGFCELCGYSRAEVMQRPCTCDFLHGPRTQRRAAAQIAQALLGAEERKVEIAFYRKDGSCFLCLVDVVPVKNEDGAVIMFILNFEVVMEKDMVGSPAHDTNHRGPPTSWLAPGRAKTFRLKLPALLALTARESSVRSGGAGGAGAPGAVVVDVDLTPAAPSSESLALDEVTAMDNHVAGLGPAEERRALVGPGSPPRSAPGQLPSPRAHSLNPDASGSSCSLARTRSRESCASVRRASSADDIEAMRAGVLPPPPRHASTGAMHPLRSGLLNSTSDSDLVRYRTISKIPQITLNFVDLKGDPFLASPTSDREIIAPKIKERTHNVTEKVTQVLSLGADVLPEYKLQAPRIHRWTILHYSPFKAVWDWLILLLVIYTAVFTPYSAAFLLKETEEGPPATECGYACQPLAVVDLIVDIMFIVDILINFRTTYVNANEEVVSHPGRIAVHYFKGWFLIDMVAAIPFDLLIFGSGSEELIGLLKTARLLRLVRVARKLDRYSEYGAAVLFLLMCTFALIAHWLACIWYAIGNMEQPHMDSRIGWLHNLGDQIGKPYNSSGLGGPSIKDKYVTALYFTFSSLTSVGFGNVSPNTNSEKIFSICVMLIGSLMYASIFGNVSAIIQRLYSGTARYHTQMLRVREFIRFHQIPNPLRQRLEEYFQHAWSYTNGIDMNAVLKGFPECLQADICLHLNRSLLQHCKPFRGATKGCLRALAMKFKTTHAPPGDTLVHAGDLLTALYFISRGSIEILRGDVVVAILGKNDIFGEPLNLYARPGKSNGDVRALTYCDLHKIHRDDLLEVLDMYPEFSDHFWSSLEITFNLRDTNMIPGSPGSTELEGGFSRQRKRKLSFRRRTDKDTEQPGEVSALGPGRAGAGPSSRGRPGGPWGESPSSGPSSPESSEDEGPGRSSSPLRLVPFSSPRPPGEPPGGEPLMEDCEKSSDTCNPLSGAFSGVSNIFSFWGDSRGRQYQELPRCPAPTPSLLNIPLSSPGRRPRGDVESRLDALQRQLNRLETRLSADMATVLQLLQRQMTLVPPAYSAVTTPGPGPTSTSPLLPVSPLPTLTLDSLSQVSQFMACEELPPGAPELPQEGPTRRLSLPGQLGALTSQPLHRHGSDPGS

[5] = Intrinsic clearance in human liver microsomes at 1 uM measured after 0.5 to 30 mins in presence of NADPH by LC-MS/MS analysis; type: ADME, Microsome; details: time 0.5-30 min, read-out: CLH
[6] = Lipophilicity, log D of the compound in octanol/phosphate buffer at pH 7.4 measured after 2 hrs by LC-MS/MS based shake flask method; type: physicochemical
[7] = Oral bioavailability in BALB/c mouse at 5 mg/kg administered via gavage by LC-MS/MS analysis; type: ADME, organism-based; details: in vivo
[8] = Intrinsic clearance in mouse liver microsomes at 1 uM measured after 0.5 to 30 mins in presence of NADPH by LC-MS/MS analysis; type: ADME, Microsome; details: time 0.5-30 min, read-out: CLH
[9] = Kinetic solubility of the compound in pH 7.4 phosphate buffered saline at 300 uM measured after 2 hrs by LC-MS/MS analysis; type: physicochemical; details: read-out: Kinetic_solubility
[10] = Volume of distribution at steady state in BALB/c mouse at 1 mg/kg, iv administered as bolus dose by LC-MS/MS analysis; type: ADME, organism-based; details: in vivo, read-out: Vdss
[11] = Unbound clearance in BALB/c mouse at 5 mg/kg, po via gavage or 1 mg/kg, iv administered as bolus dose by LC-MS/MS analysis; type: ADME, organism-based; details: in vivo
[12] = Apparent permeability across apical to basolateral side in MDCKII-MDR1 cells at 10 uM measured after 60 mins by LC-MS/MS analysis; type: ADME, cell-based, Canis lupus familiaris; details: dog, MDCK-MDR1
[13] = Dissociation constant, pKa of compound at 33 uM by UV-vis spectroscopy; type: physicochemical

**Q.** With COc1cc2nc(C)nc(N[C@H](C)c3cc(N)cc(C(F)(F)F)c3)c2cc1O[C@H]1CCOC1 as the compound, how does the IC50 [1] read?
**A.** The IC50 was 0.032 µM.

**Q.** Which IC50 [2] does the source give for Oc1cc(-c2ncc3c(N4C[C@H]5CC[C@@H](C4)N5)nc(OCC45CCCN4CCC5)nc3c2F)c2ccccc2c1 here?
**A.** Its IC50 is under 0.002 µM.

**Q.** Which half-life [3] does the source give for C[C@@H](Nc1nc2c(c3cc(=O)n(C4CC4)cc13)CC(N1CCC1)CC2)c1cccc(C(F)F)c1F (some centres undefined) here?
**A.** The half-life was 1.1 h.

**Q.** And the IC50 [4]?
**A.** Its IC50 is 1.1 µM.

**Q.** What about the CLint scaled at 1 µM [5] of the same compound?
**A.** The CLint scaled at 1 µM was 9 mL/min/kg.

**Q.** And the logD at 2 h [6]?
**A.** The logD at 2 h was 2.6.

**Q.** What about the bioavailability [7] of the same compound?
**A.** The bioavailability was 2%.

**Q.** What about the CLint scaled at 1 µM [8] of the same compound?
**A.** Its CLint scaled at 1 µM is 49 mL/min/kg.

**Q.** And the IC50 [1]?
**A.** The IC50 was 0.019 µM.

**Q.** What about the solubility kinetic at 2 h, 300 µM [9] of the same compound?
**A.** The solubility kinetic at 2 h, 300 µM was 226 µM (≈ 109 µg/mL).

**Q.** What about the Vd [10] of the same compound?
**A.** Its Vd is 4.1 L/kg.

**Q.** And the CL free [11]?
**A.** Its CL free is 353 mL/min/kg.

**Q.** What about the Papp A→B at 1 h, 10 µM [12] of the same compound?
**A.** The Papp A→B at 1 h, 10 µM was 0.3 ×10⁻⁶ cm/s.

**Q.** Which pKa at 33 µM [13] does the source give for C[C@@H](Nc1nc2c(c3cc(=O)n(C4CCOCC4)cc13)CC(N1CCC1)CC2)c1cccc(C(F)F)c1F (some centres undefined) here?
**A.** Its pKa at 33 µM is 9.3.

**Q.** With COC1CN(C2CCc3nc(N[C@H](C)c4cccc(C(F)F)c4F)c4cn(C5CCOCC5)c(=O)cc4c3C2)C1 (some centres undefined) as the compound, how does the pKa at 33 µM [13] read?
**A.** The pKa at 33 µM was 7.8.

**Q.** Which Papp A→B at 1 h, 10 µM [12] does the source give for Cc1c([C@@H](C)Nc2nc3c(c(=O)n2C)CNCC3)cccc1C(F)(F)F here?
**A.** The Papp A→B at 1 h, 10 µM was 3.2 ×10⁻⁶ cm/s.

**Q.** For C[C@@H](Nc1nc2c(c3cc(=O)n(C4CCOCC4)cc13)CC(N1CC(F)(F)C1)CC2)c1cccc(C(F)F)c1F (some centres undefined), which pKa at 33 µM [13] is on record?
**A.** The pKa at 33 µM was 6.1.

**Q.** For Cc1c([C@@H](C)Nc2nc3c(c4cc(=O)n(C5CCOCC5)cc24)CNCC3)cccc1C(F)(F)F, which pKa at 33 µM [13] is on record?
**A.** Its pKa at 33 µM is 8.8.

**Q.** And the CLint scaled at 1 µM [5]?
**A.** The CLint scaled at 1 µM was 11 mL/min/kg.

**Q.** What about the logD at 2 h [6] of the same compound?
**A.** The logD at 2 h was 2.9.

**Q.** And the CLint scaled at 1 µM [8]?
**A.** The CLint scaled at 1 µM was 46 mL/min/kg.

**Q.** And the Papp A→B at 1 h, 10 µM [12]?
**A.** Its Papp A→B at 1 h, 10 µM is 0.2 ×10⁻⁶ cm/s.

**Q.** Which half-life [3] does the source give for C[C@@H](Nc1nc2c(c3cc(=O)n(C4CC4)cc13)CC(N1CC[C@@H](F)C1)CC2)c1cccc(C(F)F)c1F (some centres undefined) here?
**A.** The half-life was 4 h.

**Q.** What about the IC50 [4] of the same compound?
**A.** The IC50 was 1.1 µM.

**Q.** And the CLint scaled at 1 µM [5]?
**A.** The CLint scaled at 1 µM was 56 mL/min/kg.

**Q.** What about the logD at 2 h [6] of the same compound?
**A.** The logD at 2 h was 3.7.

**Q.** And the bioavailability [7]?
**A.** The bioavailability was 2%.

**Q.** And the CLint scaled at 1 µM [8]?
**A.** The CLint scaled at 1 µM was 143 mL/min/kg.

**Q.** And the IC50 [1]?
**A.** The IC50 was 0.032 µM.

**Q.** What about the solubility kinetic at 2 h, 300 µM [9] of the same compound?
**A.** The solubility kinetic at 2 h, 300 µM was 90 µM (≈ 46.3 µg/mL).

**Q.** And the Vd [10]?
**A.** The Vd was 4.6 L/kg.

**Q.** And the CL free [11]?
**A.** Its CL free is 816 mL/min/kg.

**Q.** And the Papp A→B at 1 h, 10 µM [12]?
**A.** The Papp A→B at 1 h, 10 µM was 0.2 ×10⁻⁶ cm/s.

**Q.** Which IC50 [1] does the source give for Cc1c(C#N)cccc1[C@@H](C)Nc1nnc(C)c2cnc(N3CCOCC3)cc12 [MRTX-0902] here?
**A.** Its IC50 is 0.022 µM.
